Measurements taken from ChEMBL document CHEMBL5260810, “Inhibition of bromodomain-containing protein 9 for the prevention of epigenetically-defined drug resistance” (Bioorg Med Chem Lett, 2017).

Columns and labels:
Type in all cases: functional, cell-based
MIA PaCa-2 = test: Cytotoxicity against human MIA Paca-2 cells measured after 8 days; settings: MIA PaCa-2, 192 h
PaTu 8988t = test: Cytotoxicity against human PaTu 8988t cells measured after 8 days; settings: 192 h
[1] = Cytotoxicity against human HCC2885 cells measured after 8 days; settings: HCC2885, 192 h
NUGC-3 = test: Cytotoxicity against human NUGC-3 cells measured after 8 days; settings: NUGC-3, 192 h
Panc1005 = test: Cytotoxicity against human Panc1005 cells measured after 8 days; settings: Panc1005, 192 h
KYSE-410 = test: Cytotoxicity against human KYSE-410 cells measured after 8 days; settings: KYSE-410, 192 h
OVCAR-8 = test: Cytotoxicity against human OVCAR-8 cells measured after 8 days; settings: OVCAR-8, 192 h
G-361 = test: Cytotoxicity against human G-361 cells measured after 8 days; settings: G-361, 192 h
SKG-IIIa = test: Cytotoxicity against human SKG-IIIa cells measured after 8 days; settings: 192 h
RS4-11 = test: Cytotoxicity against human RS4-11 cells measured after 8 days; settings: RS4-11, 192 h
CAL-27 = test: Cytotoxicity against human CAL-27 cells measured after 8 days; settings: CAL-27, 192 h
C32 = test: Cytotoxicity against human C32 cells measured after 8 days; settings: C32, 192 h
[2] = Cytotoxicity against human COLO 853 cells measured after 8 days; settings: COLO 853, 192 h
MES-SA = test: Cytotoxicity against human MES-SA cells measured after 8 days; settings: 192 h
HN = test: Cytotoxicity against human HN cells measured after 8 days; settings: 192 h
[3] = Cytotoxicity against human Li-7 cells measured after 8 days; settings: Li-7, 192 h
[4] = Cytotoxicity against human HCC89 cells measured after 8 days; settings: HCC89, 192 h
BFTC-909 = test: Cytotoxicity against human BFTC-909 cells measured after 8 days; settings: BFTC-909, 192 h
SK-MEL-30 = test: Cytotoxicity against human SK-MEL-30 cells measured after 8 days; settings: SK-MEL-30, 192 h
SF-268 = test: Cytotoxicity against human SF-268 cells measured after 8 days; settings: SF-268, 192 h
RT-112 = test: Cytotoxicity against human RT-112 cells measured after 8 days; settings: RT-112, 192 h
ES-2 = test: Cytotoxicity against human ES2 cells measured after 8 days; settings: ES-2, 192 h
SU-DHL10 = test: Cytotoxicity against human SU-DHL-10 cells measured after 8 days; settings: SU-DHL10, 192 h
SK-MEL3 = test: Cytotoxicity against human SK-MEL3 cells measured after 8 days; settings: SK-MEL3, 192 h
[5] = Cytotoxicity against human VP229 cells measured after 8 days; settings: VP229, 192 h
[6] = Cytotoxicity against human HCC1159 cells measured after 8 days; settings: HCC1159, 192 h
SK-N-DZ = test: Cytotoxicity against human SK-N-DZ cells measured after 8 days; settings: 192 h
SCLC-21H = test: Cytotoxicity against human SCLC-21H cells measured after 8 days; settings: 192 h
[7] = Cytotoxicity against human KLM-1 cells measured after 8 days; settings: KLM1, 192 h
SK-MEL-1 = test: Cytotoxicity against human SK-MEL-1 cells measured after 8 days; settings: SK-MEL-1, 192 h
H322 = test: Cytotoxicity against human H322 cells measured after 8 days; settings: NCI-H322, 192 h
KINGS-1 = test: Cytotoxicity against human KINGS-1 cells measured after 8 days; settings: KINGS-1, 192 h
Detroit 562 = test: Cytotoxicity against human Detroit 562 cells measured after 8 days; settings: Detroit 562, 192 h
[8] = Cytotoxicity against human PaTu 8902 cells measured after 8 days; settings: PaTu 8902, 192 h
NCI-H187 = test: Cytotoxicity against human NCI-H187 cells measured after 8 days; settings: NCI-H187, 192 h
[9] = Cytotoxicity against human Panc 05.04 cells measured after 8 days; settings: Panc 05.04, 192 h
Capan-2 = test: Cytotoxicity against human Capan-2 cells measured after 8 days; settings: Capan-2, 192 h
[10] = Cytotoxicity against human HCC1623 cells measured after 8 days; settings: HCC1623, 192 h
[11] = Cytotoxicity against mouse ID8 cells measured after 8 days; settings: ID8, 192 h
[12] = Cytotoxicity against human CL-34 cells measured after 8 days; settings: CL-34, 192 h
[13] = Cytotoxicity against human HCC1534 cells measured after 8 days; settings: HCC1534, 192 h
Renca = test: Cytotoxicity against mouse Renca cells measured after 8 days; settings: 192 h
[14] = Cytotoxicity against human COLO 794 cells measured after 8 days; settings: COLO 794, 192 h
[15] = Cytotoxicity against human HEC-59 cells measured after 8 days; settings: HEC-59, 192 h
[16] = Cytotoxicity against human C32TG cells measured after 8 days; settings: 192 h
[17] = Cytotoxicity against human FTC-238 cells measured after 8 days; settings: FTC-238, 192 h
COLO-829 = test: Cytotoxicity against human COLO-829 cells measured after 8 days; settings: COLO-829, 192 h
[18] = Cytotoxicity against human CoCM-1 cells measured after 8 days; settings: CoCM-1, 192 h
KYSE-520 cell line = test: Cytotoxicity against human KYSE520 cells measured after 8 days; settings: KYSE-520, 192 h
JJN-3 = test: Cytotoxicity against human JJN-3 cells measured after 8 days; settings: JJN-3, 192 h
KYSE-450 = test: Cytotoxicity against human KYSE-450 cells measured after 8 days; settings: KYSE-450, 192 h
[19] = Cytotoxicity against human NCE-G 22 cells measured after 8 days; settings: NCE-G 22, 192 h
MDA-MB-453 = test: Cytotoxicity against human MDA-MB-453 cells measured after 8 days; settings: MDA-MB-453, 192 h
[20] = Cytotoxicity against human KPP14388 cells measured after 8 days; settings: KPP14388, 192 h
[21] = Cytotoxicity against human ONCO-DG-1 cells measured after 8 days; settings: ONCO-DG-1, 192 h
NCI-H2170 = test: Cytotoxicity against human NCI-H2170 cells measured after 8 days; settings: NCI-H2170, 192 h
[22] = Cytotoxicity against human OV56 cells measured after 8 days; settings: OV56, 192 h
[23] = Cytotoxicity against human HEC-151 cells measured after 8 days; settings: HEC-151, 192 h
[24] = Cytotoxicity against human HCC364 cells measured after 8 days; settings: HCC364, 192 h
Jurkat = test: Cytotoxicity against human Jurkat cells measured after 8 days; settings: 192 h

SMILES: C/C=C/Cn1cc(-c2ccc(C(C)(C)O)cc2OC)c2cc[nH]c2c1=O
- IC50 (MIA PaCa-2): 20 µM
- IC50 (PaTu 8988t): 20 µM
- IC50 [1]: 20 µM
- IC50 (NUGC-3): 20 µM
- IC50 (Panc1005): 20 µM
- IC50 (KYSE-410): 20 µM
- IC50 (OVCAR-8): 20 µM
- IC50 (G-361): 20 µM
- IC50 (SKG-IIIa): 20 µM
- IC50 (RS4-11): 15.4 µM
- IC50 (CAL-27): 20 µM
- IC50 (C32): 20 µM
- IC50 [2]: 20 µM
- IC50 (MES-SA): 7.08 µM
- IC50 (HN): 20 µM
- IC50 [3]: 20 µM
- IC50 [4]: 20 µM
- IC50 (BFTC-909): 20 µM
- IC50 (SK-MEL-30): 20 µM
- IC50 (SF-268): 20 µM
- IC50 (RT-112): 20 µM
- IC50 (ES-2): 20 µM
- IC50 (SU-DHL10): 10.9 µM
- IC50 (SK-MEL3): 20 µM
- IC50 [5]: 20 µM
- IC50 [6]: 20 µM
- IC50 (SK-N-DZ): 18.6 µM
- IC50 (SCLC-21H): 20 µM
- IC50 [7]: 20 µM
- IC50 (SK-MEL-1): 20 µM
- IC50 (H322): 20 µM
- IC50 (KINGS-1): 20 µM
- IC50 (Detroit 562): 20 µM
- IC50 [8]: 20 µM
- IC50 (NCI-H187): 20 µM
- IC50 [9]: 20 µM
- IC50 (Capan-2): 20 µM
- IC50 [10]: 20 µM
- IC50 [11]: 20 µM
- IC50 [12]: 20 µM
- IC50 [13]: 20 µM
- IC50 (Renca): 20 µM
- IC50 [14]: 20 µM
- IC50 [15]: 20 µM
- IC50 [16]: 20 µM
- IC50 [17]: 9.52 µM
- IC50 (COLO-829): 20 µM
- IC50 [18]: 20 µM
- IC50 (KYSE-520 cell line): 14.4 µM
- IC50 (JJN-3): 17.6 µM
- IC50 (KYSE-450): 20 µM
- IC50 [19]: 20 µM
- IC50 (MDA-MB-453): 20 µM
- IC50 [20]: 20 µM
- IC50 [21]: 20 µM
- IC50 (NCI-H2170): 20 µM
- IC50 [22]: 20 µM
- IC50 [23]: 20 µM
- IC50 [24]: 20 µM
- IC50 (Jurkat): 14.8 µM

SMILES: C/C=C/Cn1cc(-c2ccc(C(=O)N3CCOCC3)cc2)c2cc[nH]c2c1=O
- IC50 (MIA PaCa-2): 20 µM
- IC50 (PaTu 8988t): 20 µM
- IC50 [1]: 20 µM
- IC50 (NUGC-3): 20 µM
- IC50 (Panc1005): 20 µM
- IC50 (KYSE-410): 20 µM
- IC50 (OVCAR-8): 20 µM
- IC50 (G-361): 20 µM
- IC50 (SKG-IIIa): 20 µM
- IC50 (CAL-27): 20 µM
- IC50 (C32): 20 µM
- IC50 [2]: 20 µM
- IC50 (MES-SA): 20 µM
- IC50 (HN): 20 µM
- IC50 [3]: 20 µM
- IC50 [4]: 20 µM
- IC50 (BFTC-909): 20 µM
- IC50 (SK-MEL-30): 20 µM
- IC50 (SF-268): 20 µM
- IC50 (RT-112): 20 µM
- IC50 (ES-2): 20 µM
- IC50 (SU-DHL10): 20 µM
- IC50 (SK-MEL3): 20 µM
- IC50 [5]: 20 µM
- IC50 [6]: 20 µM
- IC50 (SK-N-DZ): 20 µM
- IC50 (SCLC-21H): 20 µM
- IC50 [7]: 20 µM
- IC50 (SK-MEL-1): 20 µM
- IC50 (H322): 20 µM
- IC50 (KINGS-1): 20 µM
- IC50 (Detroit 562): 20 µM
- IC50 [8]: 20 µM
- IC50 (NCI-H187): 20 µM
- IC50 [9]: 20 µM
- IC50 (Capan-2): 20 µM
- IC50 [10]: 20 µM
- IC50 [11]: 20 µM
- IC50 [12]: 20 µM
- IC50 [13]: 20 µM
- IC50 (Renca): 20 µM
- IC50 [14]: 20 µM
- IC50 [15]: 20 µM
- IC50 [16]: 20 µM
- IC50 [17]: 20 µM
- IC50 (COLO-829): 20 µM
- IC50 [18]: 20 µM
- IC50 (KYSE-520 cell line): 20 µM
- IC50 (JJN-3): 12.2 µM
- IC50 (KYSE-450): 20 µM
- IC50 [19]: 20 µM
- IC50 (MDA-MB-453): 20 µM
- IC50 [20]: 20 µM
- IC50 [21]: 20 µM
- IC50 (NCI-H2170): 20 µM
- IC50 [22]: 20 µM
- IC50 [23]: 20 µM
- IC50 [24]: 20 µM
- IC50 (Jurkat): 20 µM

SMILES: C/C=C/Cn1cc(-c2cc(OC)c(C(=O)N3CCOCC3)cc2OC)c2cc(C)[nH]c2c1=O
- IC50 (RS4-11): 2 µM
